Data: patent US20220280602A1, “ANTICANCER AGENT AND METHOD FOR PREPARATION OF POROUS SILICA PARTICLE” (LEMONEX INC., priority 2019, published 2022)

Tests used:
MCF-7 cells = assay: Assessment of cytotoxicity by MTT assay; assay type: cell-based; conditions: 1 day treatment
Method: MCF-7 cells were seeded at 10,000 cells/well in 96-well cell culture plates. After 1 day, different concentrations of each particle (4 to 500 μg/mL) were treated with a serum-containing medium in each well for 1 day. Thereafter, the culture was performed for 4 hours while replacing the above medium with a serum-free medium containing 10 μl of MTT assay kit, and the supernatant was aspirated. DMSO was added to each well to dissolve formazan, and reacted for 1 hour. The absorbance was measured at a wavelength of 570 nm, and the cell viability was calculated as a relative value to that of the untreated group.

[1] = system: MCF-7 cells expressing LC3-GFP; assay: Measurement of the number of GFP-LC3 puncta (autophagy induction); assay type: cell-based; conditions: MCF-7 expressing LC3-GFP, 6 hours, serum-free medium
Method: Using lipofectamine 2000, LC3-GFP plasmid was transfected into MCF-7 cells. Transfected MCF-7 was selected with 800 μg/mL of G418 for 3 months. […] 100,000 MCF-7 cells expressing LC3-GFP were seeded.
40 μg of dye-labeled particles and 4 μg of bec1 peptide were mixed, and the cells were treated for 6 hours in a serum-free medium. Cells were fixed with 4% PFA, and nuclei were stained with DAPI. Images were obtained with a Delta-vision microscope, and the number of GFP-LC3 puncta was measured in 100 cells for each group.

Sequence: CGGTNVFNATFHIWHSGQFGT (listed as Homo sapiens) [Bec1 peptide]
- Cell viability compared to non-treated group (MCF-7 cells): not significantly varied
- Amount of GFP puncta [1]: very little amount
